Experimental data: BigSolDB 2.1

Cl.Nc1ccccc1
solubility (mole fraction)
Details | 288.15 K | 298.15 K | 308.15 K | 318.15 K | 328.15 K
in ethanol | 0.082 | 0.098 | 0.115 | 0.134 | 0.155
in methanol | 0.144 | 0.165 | 0.188 | 0.208 | 0.23
in n-propanol | 0.047 | 0.057 | 0.07 | 0.083 | 0.098
